Laboratory results: publication PMC9897788, “Design, synthesis and cytotoxic evaluation of novel bis-thiazole derivatives as preferential Pim1 kinase inhibitors with in vivo and in silico study” (Journal of Enzyme Inhibition and Medicinal Chemistry, 2023)

Experiments:
SR = assay: NCI 60 cell one-dose screening (SRB); format: cell-based; settings: Homo sapiens, Leukemia, single dose 10 µM, 48 h, read-out: Percentage of cellular growth inhibition
How it was run: (§1)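 DTP/NCI one-dose protocol: compound at 10 µM, 48 h, 37 °C, 5% CO2. Adherent lines fixed in 10% TCA, suspension lines in 16% TCA, then SRB-stained and read at 515 nm; data expressed as 100 minus percent growth.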

A549/ATCC = assay: NCI 60 cell one-dose screening (SRB); format: cell-based; settings: Homo sapiens, Non-Small Cell Lung Cancer, single dose 10 µM, 48 h, read-out: Percentage of cellular growth inhibition
How it was run: as §1

SF-295 = assay: NCI 60 cell one-dose screening (SRB); format: cell-based; settings: Homo sapiens; SF-295, CNS Cancer; single dose 10 µM, 48 h; read-out: Percentage of cellular growth inhibition
How it was run: as §1

CAKI-1 = assay: NCI 60 cell one-dose screening (SRB); format: cell-based; settings: Homo sapiens; CAKI-1, Renal Cancer; single dose 10 µM, 48 h; read-out: Percentage of cellular growth inhibition
How it was run: as §1

K-562 = assay: NCI 60 cell one-dose screening (SRB); format: cell-based; settings: Homo sapiens, K562; K-562, Leukemia; single dose 10 µM, 48 h; read-out: Percentage of cellular growth inhibition
How it was run: as §1

SK-MEL-5 = assay: NCI 60 cell one-dose screening (SRB); format: cell-based; settings: Homo sapiens; SK-MEL-5, Melanoma; single dose 10 µM, 48 h; read-out: Percentage of cellular growth inhibition
How it was run: as §1

COLO 205 = assay: NCI 60 cell one-dose screening (SRB); format: cell-based; settings: Homo sapiens; COLO 205, Colon Cancer; single dose 10 µM, 48 h; read-out: Percentage of cellular growth inhibition
How it was run: as §1

SK-MEL-2 = assay: NCI 60 cell one-dose screening (SRB); format: cell-based; settings: Homo sapiens; SK-MEL-2, Melanoma; single dose 10 µM, 48 h; read-out: Percentage of cellular growth inhibition
How it was run: as §1

OVCAR-3 = assay: NCI 60 cell one-dose screening (SRB); format: cell-based; settings: Homo sapiens; OVCAR-3, Ovarian Cancer; single dose 10 µM, 48 h; read-out: Percentage of cellular growth inhibition
How it was run: as §1

U251 = assay: NCI 60 cell one-dose screening (SRB); format: cell-based; settings: Homo sapiens, U-251; U251, CNS Cancer; single dose 10 µM, 48 h; read-out: Percentage of cellular growth inhibition
How it was run: as §1

HCT-116 = assay: NCI 60 cell one-dose screening (SRB); format: cell-based; settings: Homo sapiens; HCT-116, Colon Cancer; single dose 10 µM, 48 h; read-out: Percentage of cellular growth inhibition
How it was run: as §1

SNB-75 = assay: NCI 60 cell one-dose screening (SRB); format: cell-based; settings: Homo sapiens; SNB-75, CNS Cancer; single dose 10 µM, 48 h; read-out: Percentage of cellular growth inhibition
How it was run: as §1

NCI-H522 = assay: NCI 60 cell one-dose screening (SRB); format: cell-based; settings: Homo sapiens; NCI-H522, Non-Small Cell Lung Cancer; single dose 10 µM, 48 h; read-out: Percentage of cellular growth inhibition
How it was run: as §1

MALME-3M = assay: NCI 60 cell one-dose screening (SRB); format: cell-based; settings: Homo sapiens, Melanoma, single dose 10 µM, 48 h, read-out: Percentage of cellular growth inhibition
How it was run: as §1

LOX IMVI = assay: NCI 60 cell one-dose screening (SRB); format: cell-based; settings: Homo sapiens, Melanoma, single dose 10 µM, 48 h, read-out: Percentage of cellular growth inhibition
How it was run: as §1

OVCAR-8 = assay: NCI 60 cell one-dose screening (SRB); format: cell-based; settings: Homo sapiens; OVCAR-8, Ovarian Cancer; single dose 10 µM, 48 h; read-out: Percentage of cellular growth inhibition
How it was run: as §1

PC-3 = assay: NCI 60 cell one-dose screening (SRB); format: cell-based; settings: Homo sapiens; PC-3, Prostate Cancer; single dose 10 µM, 48 h; read-out: Percentage of cellular growth inhibition
How it was run: as §1

[1] = tested on: Breast T47D cancer cell line; assay: In vitro inhibition concentration of breast T47D cancer cell line; format: cell-based; settings: Homo sapiens
Protocol: Cells were seeded and treated with a range of inhibitors concentration 39–10,000 nM after 24 h relative to DMSO. […]

T-47D = assay: NCI 60 cell one-dose screening (SRB); format: cell-based; settings: Homo sapiens, T47D, 48 h, Breast Cancer, single dose 10 µM, read-out: Percentage of cellular growth inhibition
How it was run: as §1

Structure (SMILES)	inhibition at 10 µM (SR)	inhibition at 10 µM (A549/ATCC)	inhibition at 10 µM (SF-295)	inhibition at 10 µM (CAKI-1)	inhibition at 10 µM (K-562)	inhibition at 10 µM (SK-MEL-5)	inhibition at 10 µM (COLO 205)	inhibition at 10 µM (SK-MEL-2)	inhibition at 10 µM (OVCAR-3)	inhibition at 10 µM (U251)	inhibition at 10 µM (HCT-116)	inhibition at 10 µM (SNB-75)	inhibition at 10 µM (NCI-H522)	inhibition at 10 µM (MALME-3M)	inhibition at 10 µM (LOX IMVI)	inhibition at 10 µM (OVCAR-8)	inhibition at 10 µM (PC-3)	melting point	IC50 ([1]; 48 h)	inhibition at 10 µM (T-47D)	also measured
Fc1ccc(-c2csc(Nc3cccc(Nc4nc(-c5ccc(F)cc5)cs4)c3)n2)cc1 [6b, N^1,N^3-bis(4–(4-fluorophenyl)thiazol-2-yl)benzene-1,3-diamine]	48.6%	37.2%	9.6%	53.6%	64%	38.8%	24.3%	65.3%	42.5%	37.3%	42.3%	4.8%	93.8%	17%	60.7%	32.1%	64.8%	80 to 83 °C	5.92 µM		IC50 ([1]; 96 h): 1.61 µM
c1ccc(/N=c2\scc(-c3ccccc3)n2-c2cccc(-n3c(-c4ccccc4)cs/c3=N\c3ccccc3)c2)cc1 [8a, N,N’-(3,3’-(1,3-phenylene)bis(4-phenylthiazole-3(3H)-yl-2(3H)-ylidene))dianiline]	6.1%	-4.9%	-22.4%	25.4%	7.8%	4%	-21.3%	12.6%	-3.6%	2.7%	-4.1%	11.7%	12.2%	3%	22.6%	-1.5%	21.8%	110 to 111 °C		10.2%	
Fc1ccc(-c2cs/c(=N\c3ccccc3)n2-c2cccc(-n3c(-c4ccc(F)cc4)cs/c3=N\c3ccccc3)c2)cc1 [8b, N,N’-(3,3’-(1,3-phenylene)bis(4–(4-fluorophenyl)thiazole-3(3H)-yl-2(3H)-ylidene))dianiline]	36.1%	19.8%	-18.8%	22.2%	28.8%	9.3%	-0.4%	22.2%	4.1%	28.1%	16.7%	15.4%	41.6%	7.5%	23.9%	12.4%	32.1%		9.8 µM	51%	IC50 ([1]; 96 h): 2.61 µM
Clc1ccc(-c2cs/c(=N\c3ccccc3)n2-c2cccc(-n3c(-c4ccc(Cl)cc4)cs/c3=N\c3ccccc3)c2)cc1 [8c, N,N’-(3,3’-(1,3-phenylene)bis(4–(4-chlorophenyl)thiazole-3(3H)-yl-2(3H)-ylidene))dianiline]	12.1%	27.7%	-17.9%	9%	11.7%	3.1%	17.2%	-9.6%	-6.6%	11.1%	15.7%	14.6%	42.2%	6.7%	50.6%	7.9%	28.9%	120 to 121 °C		8.9%	
